The target in the test is T1, PD-1-Ig binding to PD-L1-TVMV-His (PD-L1-His) (Homo sapiens, UniProt Q9NZQ7).
T1 construct: hPDL1(19-239)-TVMV-His; made in house; host or cells: HEK293T cells
In words: PD-1/PD-L1 Homogenous Time-Resolved Fluorescence (HTRF) binding assay. The following applies: PD-1-Ig (20 nM) / PD-L1-His (10 nM); range classes. Summed up: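 In dPBS with 0.1% BSA and 0.05% Tween-20, inhibitors were preincubated 15 min with 10 nM PD-L1-His before 20 nM PD-1-Ig was added for another 15 min. Binding read by time-resolved FRET between Eu-cryptate anti-Ig (1 nM) and APC anti-His (20 nM).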

Positions of bridges follow the written chain, without caps; N, C: chain ends. Non-standard residues stand in square brackets, D forms with d. Residues, ends and D or L forms follow the SMILES beside them. Trp(1-CH2COOH) = N[C@@H](Cc1cn(CC(=O)O)c2ccccc12)C(=O)O; Phe(4-Cl) = N[C@@H](Cc1ccc(Cl)cc1)C(=O)O; Hyp = O=C(O)[C@@H]1C[C@@H](O)CN1; NMeNle = CCCC[C@H](NC)C(=O)O; dOrn = NCCC[C@@H](N)C(=O)O; Pip = O=C(O)[C@@H]1CCCCN1; Dab = NCC[C@H](N)C(=O)O; Dap = NC[C@H](N)C(=O)O; Ava = NCCCCC(=O)O

T1 sequence (Q9NZQ7 with tags, fused parts or gaps): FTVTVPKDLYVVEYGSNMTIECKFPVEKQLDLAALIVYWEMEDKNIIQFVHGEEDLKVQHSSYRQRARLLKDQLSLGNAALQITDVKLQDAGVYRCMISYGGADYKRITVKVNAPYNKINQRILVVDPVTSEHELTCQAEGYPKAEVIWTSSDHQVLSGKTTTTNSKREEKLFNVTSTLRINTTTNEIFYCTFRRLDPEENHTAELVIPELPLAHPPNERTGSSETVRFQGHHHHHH

In turn, `CCCC[C@H]1C(=O)N(C)[C@@H](CCCC)C(=O)N[C@@H](CC(C)C)C(=O)NCCC[C@@H](N)C(=O)N[C@@H](Cc2ccc(Cl)cc2)C(=O)N2CCCC[C@H]2C(=O)N[C@@H](CC(N)=O)C(=O)N2CCC[C@H]2C(=O)N[C@@H](CN)C(=O)N[C@@H](CCC(=O)O)C(=O)N2C[C@H](O)C[C@H]2C(=O)N[C@@H](Cc2c[nH]c3ccccc23)C(=O)N[C@@H](CCN)C(=O)N[C@@H](Cc2cn(CC(=O)O)c3ccccc23)C(=O)N1C` [Example 10571] (H-[dOrn][Phe(4-Cl)][Pip]NP[Dap]E[Hyp]W[Dab][Trp(1-CH2COOH)][NMeNle][NMeNle]L; lactam 1-C) showed a half-inhibitory concentration (IC50) of 1 to 9.9 nM.

Consider `CCCC[C@H]1C(=O)N(C)[C@@H](CCCC)C(=O)N[C@@H](CC(C)C)C(=O)NCCCCC(=O)N[C@@H](Cc2ccc(OC)cc2)C(=O)N2CCCC[C@H]2C(=O)N[C@@H](CC(=O)O)C(=O)N2CCC[C@H]2C(=O)N[C@@H](CN)C(=O)N[C@@H](CC(C)C)C(=O)N2C[C@H](O)C[C@H]2C(=O)N[C@@H](Cc2c[nH]c3ccccc23)C(=O)N[C@@H](CCN)C(=O)N[C@@H](Cc2cn(CC(=O)O)c3ccccc23)C(=O)N1C` [Example 10572] (cyclo([Ava]Y(Me)[Pip]DP[Dap]L[Hyp]W[Dab][Trp(1-CH2COOH)][NMeNle][NMeNle]L)), for which the IC50 lay in the range of 1 to 9.9 nM.

The values above are taken from patent publication US9732119B2, “Immunomodulators” (BRISTOL-MYERS SQUIBB COMPANY, priority 2014, dated 2017).
